Source: the supplement of paper PMC12613149
Where a name gives a salt, the structure may show the parent alone.

What was measured:
[1] = collision cross section (TIMS, N2 drift gas) of the primary ion; higher = larger gas-phase ion size
Procedure: (§1)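 Reference mixture of environmental contaminants analysed by RP-LC (BEH C18, 50 °C; ESI+ with water/MeOH plus formic acid and ammonium formate, ESI- with ammonium bicarbonate) coupled to a timsTOF Pro 2 with trapped ion mobility in nitrogen (ramp/accumulation 100 ms). CCS was calibrated with Agilent tune mix (CCS compendium) and averaged over five injections at 0.5-500 ng/mL. The table reports the lowest-CCS (putative monomer) peak; retention times are on the same gradient.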

[2] = reversed-phase LC retention time (C18, 15 min MeOH gradient); higher = more hydrophobic / later elution
Procedure: as §1

[3] = ionization mode: ESI-, ion species: [M-H]-
[4] = ionization mode: ESI+, ion species: [M+H]+
[5] = ionization mode: ESI+, ion species: [M]+

| collision cross section [1, 4] [Å²] | reversed-phase LC retention time [2, 4] [min] | collision cross section [1, 5] [Å²] | reversed-phase LC retention time [2, 5] [min] | Compound | collision cross section [1, 3] [Å²] | reversed-phase LC retention time [2, 3] [min] |
| --- | --- | --- | --- | --- | --- | --- |
|  |  |  |  | CCCC(C)C1(CC)C(=O)NC(=O)NC1=O (stereo unspecified) [Pentobarbital] | 150.46 | 12.2 |
|  |  |  |  | O=C(NC(CO)C(O)c1ccc([N+](=O)[O-])cc1)C(Cl)Cl (stereo unspecified) [Chloramphenicol] | 165.75 | 9.83 |
| 142.68 | 6.24 |  |  | CCCOC(=O)NCCCN(C)C [Propamocarb] |  |  |
| 171.64 | 14.8 |  |  | CCCCC(CC)CNCC(CC)CCCC (stereo unspecified) [Di(2-ethylhexyl)amine] |  |  |
|  |  | 115.07 | 0.99 | CC[n+]1ccn(C)c1 [1-Ethyl-3-methyl-imidazolium] |  |  |
| 144.23 | 12 |  |  | CC(C)(C)Nc1nc(N)nc(Cl)n1 [Desethylterbutylazine] |  |  |
|  |  |  |  | O=S(=O)(O)C(F)(F)C(F)(F)C(F)(F)C(F)(F)C(F)(F)C(F)(F)C(F)(F)C(F)(F)F [Perfluorooctanesulfonic acid] | 169.04 | 15.4 |
| 163.01 | 10.3 |  |  | Cc1cccc(C)c1N(Cn1cccn1)C(=O)CS(C)=O (stereo unspecified) [Metazachlor BH 479-11] |  |  |
|  |  |  |  | CC(Oc1ccc(Oc2cnc3cc(Cl)ccc3n2)cc1)C(=O)O (stereo unspecified) [Quizalofop] | 192.68 | 13.5 |
| 216.99 | 13.2 |  |  | CC(=O)N1CCN(c2ccc(OC[C@H]3CO[C@](Cn4ccnc4)(c4ccc(Cl)cc4Cl)O3)cc2)CC1 [Ketoconazole] |  |  |
| 130.01 | 5.38 |  |  | CC(=O)Nc1ccc(O)cc1 [Acetaminophen] |  |  |
| 172.06 | 6.11 |  |  | COc1cc2nc(N3CCNCC3)nc(N)c2cc1OC [6,7-Dimethoxy-2-(piperazin-1-yl)quinazolin-4-amine] |  |  |
|  |  |  |  | O=C(O)C(F)(F)C(F)(F)C(F)(F)C(F)(F)C(F)(F)C(F)(F)C(F)(F)C(F)(F)F [Perfluorononanoic acid] | 164.37 | 15.4 |
| 164.03 | 10 |  |  | COCCN(C(=O)CS(=O)(=O)O)c1c(C)cccc1C [Dimethachlor ESA] | 167.03 | 9.95 |
|  |  | 187.45 | 16.5 | CCCCCCCCCCCCCC[N+](C)(C)C [Tetradecyltrimethylammonium] |  |  |
|  |  |  |  | CCCCCCS(=O)(=O)O [1-Hexanesulfonic acid] | 137.49 | 9.04 |
| 192.92 | 9.57 |  |  | NC(CC(=O)N1CCn2c(nnc2C(F)(F)F)C1)Cc1cc(F)c(F)cc1F (stereo unspecified) [Sitagliptin] | 182.72 | 12.1 |
| 267.43 | 13.9 |  |  | CCC1OC(=O)C(C)C(OC2CC(C)(OC)C(O)C(C)O2)C(C)C(OC2OC(C)CC(N(C)C)C2O)C(C)(OC)CC(C)C(=O)C(C)C(O)C1(C)O (stereo unspecified) [Clarithromycin] |  |  |
| 192.95 | 11.2 |  |  | O=C1Cc2cc(CCN3CCN(c4nsc5ccccc45)CC3)c(Cl)cc2N1 [Ziprasidone] |  |  |
| 189.23 | 12.7 |  |  | CN1CCCC(n2nc(Cc3ccc(Cl)cc3)c3ccccc3c2=O)CC1 (stereo unspecified) [Azelastine] |  |  |
| 177.44 | 15.1 |  |  | CC(=O)[C@H]1CC[C@H]2[C@@H]3C=CC4=CC(=O)CC[C@@]4(C)[C@@H]3CC[C@]12C [Dydrogesterone] |  |  |
| 226.35 | 7.4 |  |  | CC1(C)CC(N(C=O)CCCCCCN(C=O)C2CC(C)(C)NC(C)(C)C2)CC(C)(C)N1 [Univul-4050H] |  |  |

| collision cross section [1, 4] [Å²] | reversed-phase LC retention time [2, 4] [min] | collision cross section [1, 5] [Å²] | reversed-phase LC retention time [2, 5] [min] | Compound | collision cross section [1, 3] [Å²] | reversed-phase LC retention time [2, 3] [min] |
| --- | --- | --- | --- | --- | --- | --- |
| 200.7 | 13.6 |  |  | CC1(C)O[C@@H]2C[C@H]3[C@@H]4CCC5=CC(=O)C=C[C@]5(C)[C@H]4[C@@H](O)C[C@]3(C)[C@]2(C(=O)CO)O1 [Desonide] |  |  |
|  |  |  |  | O=S(=O)(O)c1cccc2c(O)cccc12 [5-Hydroxy-1-naphthalenesulfonic acid] | 143.15 | 2.41 |
|  |  |  |  | O=S(=O)(O)NC1CCCCC1 [Cyclamate] | 138.05 | 6.16 |
| 204.46 | 18.6 |  |  | CC(C)CCCCOC(=O)c1ccccc1C(=O)OCCCCC(C)C [Diisoheptyl phthalate] |  |  |
| 263.3 | 21 |  |  | CCCCCCCCSc1nc(Nc2cc(C(C)(C)C)c(O)c(C(C)(C)C)c2)nc(SCCCCCCCC)n1 |  |  |
|  |  | 167.79 | 11 | CCCC[N+](CCCC)(CCCC)CCCC [Tetrabutylammonium] |  |  |
| 179.28 | 4.56 |  |  | CC(=O)Nc1c(I)c(NC(C)=O)c(I)c(C(=O)O)c1I [Diatrizoate] |  |  |
| 168.61 | 9.52 |  |  | Cc1cccc(C)c1N(Cn1cccn1)C(=O)CS(=O)(=O)O [Metazachlor ESA] | 168.78 | 9.35 |
|  |  |  |  | Oc1c(Cl)cc(-c2ccc(Cl)cc2)cc1Cl [4-Hydroxy-3,4',5-trichlorobiphenyl] | 154.17 | 15.5 |
| 203.87 | 16.5 |  |  | CCCCOC(=O)CC(O)(CC(=O)OCCCC)C(=O)OCCCC [Tri-n-butyl citrate] |  |  |
| 213.54 | 16.8 |  |  | N#Cc1ccc(C/C(=N\NC(=O)Nc2ccc(OC(F)(F)F)cc2)c2cccc(C(F)(F)F)c2)cc1 [Metaflumizone] | 221.65 | 17.3 |
| 175.77 | 15.6 |  |  | CCCCCCCCCCCC[N+](C)(C)[O-] [N,N-Dimethyldodecylamine N-oxide] |  |  |
|  |  | 123.33 | 1.03 | CC[N+](CC)(CC)CC [Tetraethylammonium] |  |  |
| 149.16 | 7.74 |  |  | Cc1c(NC=O)c(=O)n(-c2ccccc2)n1C [N-Formyl-4-aminoantipyrine] |  |  |
|  |  |  |  | O=S(=O)(O)CCC(F)(F)C(F)(F)C(F)(F)C(F)(F)C(F)(F)C(F)(F)F [6:2 fluorotelomer sulfonic acid] | 168.03 | 14.7 |
|  |  |  |  | O=C(O)C(F)(F)C(F)(F)C(F)(F)C(F)(F)C(F)(F)C(F)(F)C(=O)O [Perfluorosuberic acid] | 143.37 | 6.68 |
| 180.55 | 15.2 |  |  | CCOC(=O)NCCOc1ccc(Oc2ccccc2)cc1 [Fenoxycarb] |  |  |
| 143.71 | 11.2 |  |  | CCCCOCCOCCOCCO [Triethylene Glycol Monobutyl Ether] |  |  |
| 209.12 |  |  |  | N[C@@H](Cc1cc(I)c(Oc2ccc(O)c(I)c2)c(I)c1)C(=O)O [3,3',5-Triiodo-L-thyronine] | 199.54 |  |
|  |  |  |  | CC(C)(C)c1ccc(O)cc1 [4-tert-Butylphenol] | 137.69 |  |
| 180.93 |  |  |  | CC(=O)[C@H]1CC[C@H]2[C@@H]3CCC4=CC(=O)CC[C@]4(C)[C@H]3CC[C@]12C [Progesterone] |  |  |
| 202.55 |  |  |  | CCC(=C(c1ccc(O)cc1)c1ccc(OCCN(C)C)cc1)c1ccccc1 [4-Hydroxytamoxifen] | 214.38 |  |

| Compound | collision cross section [1, 4] [Å²] | reversed-phase LC retention time [2, 4] [min] | collision cross section [1, 5] [Å²] | reversed-phase LC retention time [2, 5] [min] | collision cross section [1, 3] [Å²] | reversed-phase LC retention time [2, 3] [min] |
| --- | --- | --- | --- | --- | --- | --- |
| Cc1nnc(-c2ccccc2)c(=O)n1N [Metamitron] | 143.85 | 8.87 |  |  |  |  |
| C[N+](C)(C)CC1CO1 (stereo unspecified) [2,3-Epoxypropyltrimethylammonium] |  |  | 117.85 | 0.95 |  |  |
| CCNc1nc(Cl)nc(NC(C)(C)C)n1 [Terbuthylazine] | 153.3 | 14 |  |  |  |  |
| CCC(=O)Nc1ccc(Cl)c(Cl)c1 [Propanil] | 146.71 | 13.8 |  |  | 141.22 | 14.1 |
| CN/C(=N\[N+](=O)[O-])NCc1cnc(Cl)s1 [Clothianidin] | 153.61 | 8.59 |  |  | 150.63 | 8.62 |
| COc1cccc([C@@]2(O)CCCC[C@@H]2CN(C)C)c1 [Tramadol] | 160.98 | 9.25 |  |  |  |  |
| CCCCCCCCn1sccc1=O [2-Octyl-4-isothiazolin-3-one] | 157.49 | 14.9 |  |  |  |  |
| c1ccc2c(c1)[nH]c1cnccc12 [Norharmane] | 132.84 | 8.24 |  |  | 129.43 | 12.9 |
| Nc1ccc(-c2ccc(N)cc2)cc1 [Benzidine] | 155.46 | 3.98 |  |  |  |  |
| CCOP(=S)(OCC)Oc1cc(C)nc(C(C)C)n1 [Diazinon] | 172.11 | 15.6 |  |  |  |  |
| CCCC1COC(Cn2cncn2)(c2ccc(Cl)cc2Cl)O1 (stereo unspecified) [Propiconazole] | 179.72 | 15.7 |  |  |  |  |
| Cc1nc(N(C)C)nc(OC(=O)N(C)C)c1C [Pirimicarb] | 156.34 | 10.5 |  |  |  |  |
| CCC(C)(CC)c1cc(NC(=O)c2c(OC)cccc2OC)on1 [Isoxaben] | 186.76 | 14.3 |  |  | 186.45 | 14.7 |
| CCc1cccc(C)c1N(C(=O)CCl)C(C)COC (stereo unspecified) [Metolachlor] | 160.17 | 15.1 |  |  |  |  |
| CCCOc1nn(C(=O)NS(=O)(=O)c2ccccc2C(=O)OC)c(=O)n1C [Propoxycarbazone] | 199.32 | 11.7 |  |  | 193.45 | 9.86 |
| CCCN(CCC)C(=O)SCc1ccccc1 [Prosulfocarb] | 158.12 | 16.4 |  |  |  |  |
